“Also recorded” adds a separate entry of the source. Read-outs that look alike come from different tables or passages of the source.
Columns and labels:
APP = assay: Endogenous APP-CTF accumulation in MDA-MB-231 cells (Western blot); type: cell-based; conditions: for APP CTF increase / APP CTF level / accumulation at 100 nM: MDA-MB-231 (231 cells), 100 nM, triplicate; for APP CTF increase: vs DMSO; for concentration from which APP‐CTF process is inhibited: MDA-MB-231, 16 h
Description: To extend the study to a more physiological system, we assessed endogenous NOTCH1 cleavage inhibition using the triple‐negative breast cancer line MDA‐MB‐231 (Fig 6A). Full‐length blots are shown in source data for Fig 6. NOTCH1 cleavage was detected by Western blotting using the Cell Signaling neo‐epitope NICD antibody. […] The inhibition of endogenous APP in MDA‐MB‐231 cells was also tested by detecting accumulation of APP COOH‐terminal fragments (APP‐CTFs). […] Figure 6D summarized the APP‐CTF band intensities normalized for DMSO group. The original blots are available in source data for Fig 6.
Values are mean ± SD of three tests. • APP‐CTF Western blot of MDA‐MB‐231 cells treated with indicated concentration of GSIs for 16 h. • Band intensities of APP‐CTF with 0.1 μM GSIs were normalized for DMSO control group. Values are mean ± SD of three tests. Data information: Original blots are provided as source data. All band intensity data are derived from three independent experiments and are analyzed by one‐way ANOVA using GraphPad Prism6 software. All experiments were repeated three times.Source data are available online for this figure.

cAPPC100sub = assay: Cell-based γ-secretase cleavage assay, cAPPC100sub stably overexpressing cells (Aβ ELISA); conditions: for low-dose potentiation of cleavage, cAPPC100sub: cAPPC100sub overexpressing cells
From the text: We next tested all GSIs on cAPPC100sub and full‐length APP stably overexpressing cells. […] The low‐dose potentiation of γ‐secretase cleavage was further mechanistically probed using in vitro assays with recombinant substrates and IP‐MS.
(§1) For the cell‐based assay, all substrates contain a human NOTCH4 signal peptide sequence ([…]), amyloid β peptide (Aβ1–25/K16A) epitope tag followed by the juxtamembrane region (JMD) of the given substrate and a FLAG tag ([…]) at the COOH‐terminal. K16A mutant was created to decrease potential α‐secretase cleavage. The cDNAs were generated by gene synthesis conducted by Genscript. A schematic representation of the substrates is provided in Fig 4A, and sequences of the cDNAs and the proteins are provided in Appendix Fig S6. For clarity, these substrates are referred to as cell‐based assay substrates (e.g., NOTCH1 is cNOTCH1sub). Substrate cDNAs were cloned into pCDNA3.1 (Invitrogen, Carlsbad, CA, USA) for expression in H4 cells (ATCC, Manassas, VA).
(§2) H4 cells were cultured in Opti‐mem media (Thermo‐Fisher) supplemented with Hyclone 6% fetal bovine serum (GE, Logan, Utah, USA) and 1% penicillin/streptomycin (Life Technologies, Grand Island, NY, USA). pCDNA3.1 plasmids containing the substrate cDNAs were transfected into H4 cells using FuGENE HD reagent (Madison, WI, USA). Stable cell lines were established using G418 selection. […] Cells and conditioned media were used for WB, IP, and ELISA.
(§3) Sandwich ELISAs used for Aβ detection were performed as previously described (Murphy et al, 1999; Ran et al, 2014). Briefly, Aβ and Aβ‐like peptides in conditioned media were captured with Ab5 antibody and detected with horseradish peroxidase labeled mAb 4G8 (Biolegend). Synthetic Aβ1‐40 was used as standard. All ELISAs were developed with TMB substrate (KPL, Gaithersburg, Maryland, USA). Bis‐Tris precast gels (Biorad, Hercules, CA, USA) were used for all SDS–PAGE. Monoclonal anti‐FLAG M2 antibody (Sigma) and Aβ1‐16 antibody 6E10 (Covance) were used for Western blotting at 1:1,000 dilution. Anti‐CD74 In‐1 antibody (BD Bioscience, San Jose, CA, USA) was used for A20 cell lysate Western blotting at dilution of 1:1,000. MDA‐MB‐231 cell extracts were prepared by lysing cells in RIPA buffer containing protease and phosphatase inhibitors. The lysates were kept on ice for 30 min and vortexed every 10 min, and then centrifuged at 4°C for 10 min at 1,000 g. The supernatants were collected, and protein concentrations were determined by Bradford Assay. Pan‐NOTCH1 antibody (C‐20) (Santa Cruz Biotechnology) and cleaved NOTCH1 (Val1744) antibody ([…]) were used at 1:500 and 1:100 dilution in the test of endogenous NOTCH1 inhibition with β‐actin expression used as loading control. β‐actin antibody was used at 1:1,000 dilution (Sigma). Band intensities normalized for actin using densitometry analysis with ImageJ Software (NIH, USA).

cNOTCH2sub = cNOTCH2sub (Homo sapiens, UniProt P49768); assay: Cell-based γ-secretase cleavage assay, cNOTCH2sub in H4 cells (Aβ-like peptide ELISA); conditions: rank among the six GSIs, number in brackets
Description: (§4) Using these cell‐based γ‐secretase cleavage assays, we systematically investigated the substrate inhibition profile of BMS‐906024, MK‐0752, PF‐308414, RO4929097, Semagacestat, and DAPT. We treated H4 cells stably expressing cNOTCH1‐4sub with 4 pM to 10 μM of GSIs (Fig 5A and Table 2) and measured the Aβ‐like peptide secreted into the media.
as §1, §2, §3

cNOTCH1sub = assay: Cell-based γ-secretase cleavage assay, cNOTCH1sub in H4 cells (Aβ-like peptide ELISA); set-up: species or system human; conditions: Aβ-like peptide in media, GSI overnight
Description: as §4, §1, §2, §3

NOTCH = tested on: NOTCH; set-up: method as in ref Appendix Table S1 (Gavai et al, 2015; Cook et al, 2010; Krop et al, 2012; Wei et al, 2010; Luistro et al, 2009; Mitani et al, 2012); conditions: ref Appendix Table S1 (Gavai et al, 2015; Cook et al, 2010; Krop et al, 2012; Wei et al, 2010; Luistro et al, 2009; Mitani et al, 2012); read-out: Reported IC50s NOTCH; cited from earlier work
Aβ40 = tested on: Aβ40; set-up: method as in ref Appendix Table S1 (Gavai et al, 2015; Dovey et al, 2001; Cook et al, 2010; Krop et al, 2012; Wei et al, 2010; Luistro et al, 2009; Mitani et al, 2012); conditions: ref Appendix Table S1 (Gavai et al, 2015; Dovey et al, 2001; Cook et al, 2010; Krop et al, 2012; Wei et al, 2010; Luistro et al, 2009; Mitani et al, 2012); read-out: Reported IC50s Aβ40; cited from earlier work
cNOTCH4sub = assay: Cell-based γ-secretase cleavage assay, cNOTCH4sub in H4 cells (Aβ-like peptide ELISA); set-up: species or system human; conditions: Aβ-like peptide in media, GSI overnight
Description: as §4, §1, §2, §3

cNOTCH3sub = assay: Cell-based γ-secretase cleavage assay, cNOTCH3sub in H4 cells (Aβ-like peptide ELISA); set-up: species or system human
Description: as §4, §1, §2, §3

[1] = stably overexpressing cells, Aβ ELISA, read-out: IC50 cC100sub
[2] = Aβ-like peptide in media, GSI overnight, read-out: IC50 cNOTCH3sub
[3] = value in parentheses, read-out: IC50 cC100sub, from curves excluding the Aβ level > 120%
[4] = value in parentheses, read-out: IC50 cNOTCH3sub, from curves excluding the Aβ level > 120%

CN1C(=O)[C@@H](NC(=O)[C@H](CCC(F)(F)F)[C@H](CCC(F)(F)F)C(N)=O)N=C(c2ccccc2)c2ccccc21 [BMS‐906024]
APP CTF increase (APP): > 15 times | concentration from which APP‐CTF process is inhibited (APP): ≥ 20 nM | increase of Aβ production from the cAPPC100sub (cAPPC100sub; 1–4 pM BMS‐906024): ~ 1.5 fold | IC50 (cAPPC100sub; [1]): 1.46 nM | rank order of inhibition of cNOTCH2sub (cNOTCH2sub): [2] | IC50 (cNOTCH1sub): 0.29 nM | IC50 (NOTCH): 0.7 to 3.4 nM | IC50 (Aβ40): 1.6 nM | IC50 (cNOTCH4sub): 0.71 nM | IC50 (cNOTCH3sub; [2]): 1.14 nM

O=C(O)CC[C@H]1CC[C@@](c2cc(F)ccc2F)(S(=O)(=O)c2ccc(Cl)cc2)CC1 [MK‐0752]
APP CTF level / accumulation at 100 nM (APP): hard to see | APP CTF level / accumulation at 100 nM (APP; listed as MK): did not significantly increase CTF level | concentration from which APP‐CTF process is inhibited (APP): ≥ 500 nM | low-dose potentiation of cleavage, cAPPC100sub (cAPPC100sub): low‐dose potentiation of cleavage was observed | IC50 (cAPPC100sub; [1]): 336 nM | IC50 (cAPPC100sub; [3]): 154 nM | rank order of inhibition of cNOTCH2sub (cNOTCH2sub): [5] | IC50 (cNOTCH1sub): 87.4 nM | IC50 (NOTCH): 55 nM | IC50 (Aβ40): 5 nM | IC50 (cNOTCH4sub): 191 nM | effect on cNOTCH3sub cleavage at low concentrations (cNOTCH3sub): increases cNOTCH3sub cleavage at low doses | IC50 (cNOTCH3sub; [2]): 370 nM | IC50 (cNOTCH3sub; [4]): 194 nM

CCC[C@H](N[C@H]1CCc2cc(F)cc(F)c2C1)C(=O)Nc1cn(C(C)(C)CNCC(C)(C)C)cn1 [PF‐3084014]
APP CTF increase (APP): > 15 times | concentration from which APP‐CTF process is inhibited (APP): ≥ 20 nM | IC50 (cAPPC100sub; [1]): 2.47 nM | IC50 (cAPPC100sub; [3]): 1.34 nM | rank order of inhibition of cNOTCH2sub (cNOTCH2sub): [1] | IC50 (cNOTCH1sub): 0.6 nM | IC50 (NOTCH): 13.3 nM | IC50 (Aβ40): 6.2 nM | IC50 (cNOTCH4sub): 0.81 nM | effect on cNOTCH3sub cleavage at low concentrations (cNOTCH3sub): potentiates cleavage of NOTCH3 | IC50 (cNOTCH3sub; [2]): 1.21 nM

CC(C)(C(=O)NCC(F)(F)C(F)(F)F)C(=O)N[C@@H]1C(=O)Nc2ccccc2-c2ccccc21 [RO4929097]
APP CTF increase (APP): > 15 times | concentration from which APP‐CTF process is inhibited (APP): ≥ 20 nM | low-dose potentiation of cleavage, cAPPC100sub (cAPPC100sub): low‐dose potentiation of cleavage was observed | IC50 (cAPPC100sub; [1]): 26.6 nM | IC50 (cAPPC100sub; [3]): 24 nM | rank order of inhibition of cNOTCH2sub (cNOTCH2sub): [3] | IC50 (cNOTCH1sub): 0.46 nM | IC50 (NOTCH): 5 nM | IC50 (Aβ40): 14 nM | IC50 (cNOTCH4sub): 3.4 nM | IC50 (cNOTCH3sub; [2]): 19.8 nM | concentration that significantly increases cleavage of the cNOTCH3sub (cNOTCH3sub; potentiation at low inhibitor concentration): 0.5 to 2.5 nM | IC50 (cNOTCH3sub; [4]): 6.93 nM

CC(C)[C@H](O)C(=O)N[C@@H](C)C(=O)N[C@@H]1C(=O)N(C)CCc2ccccc21 [Semagacestat]
APP CTF level / accumulation at 100 nM (APP): hard to see; also recorded: did not significantly increase CTF level | concentration from which APP‐CTF process is inhibited (APP): ≥ 500 nM | low-dose potentiation of cleavage, cAPPC100sub (cAPPC100sub): low‐dose potentiation of cleavage was observed | IC50 (cAPPC100sub; [1]): 175 nM | IC50 (cAPPC100sub; [3]): 105 nM | rank order of inhibition of cNOTCH2sub (cNOTCH2sub): [4] | IC50 (cNOTCH1sub): 7.02 nM | IC50 (NOTCH): 14.1 nM | IC50 (Aβ40): 12.1 nM | IC50 (cNOTCH4sub): 46 nM | effect on cNOTCH3sub cleavage at low concentrations (cNOTCH3sub): potentiate | IC50 (cNOTCH3sub; [2]): 391 nM | IC50 (cNOTCH3sub; [4]): 129 nM
